Tests used:
[1] = tested on: a variety of test species; assay: Post-emergence herbicidal activity (glasshouse, sprayed after 8 days cultivation, evaluated after 13 days); format: in vivo; design: key: 5=total damage to plant; 0=no damage to plant; settings: rate 1000 g/Ha, scale 0-5
Summary of the method: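 Seeds were sown in standard soil and cultivated for 8 days under controlled glasshouse conditions. Seedlings were then sprayed with an aqueous solution of the formulated compound containing 0.5% Tween 20. Injury was rated after a further 13 days, where 5 indicated total damage.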

[2] = tested on: a variety of test species; assay: Pre-emergence herbicidal activity (glasshouse, sprayed one day after sowing, evaluated after 13 days); format: in vivo; design: key: 5=total damage to plant; 0=no damage to plant; settings: application pre-emergence, rate 1000 g/Ha, scale 0-5
Summary of the method: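 Sow in pots of standard soil; after one day under glasshouse conditions, spray compound (acetone/water 50:50 formulation, 0.5% Tween 20, diluted in water). Grow on at 24/16 °C, 14 h light, 65% humidity with twice-daily watering. Assess at 13 days, 0–5 damage scale.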

Row | Compound | ABUTH (Abutilon theophrasti) damage score, application post-emergence [1] | ALOMY (Alopecurus myosuroides) damage score, application post-emergence [1] | AMARE (Amaranthus retroflexus) damage score, application post-emergence [1] | ECHCG (Echinochloa crus-galli) damage score, application post-emergence [1] | SETFA (Setaria faberi) damage score, application post-emergence [1] | ZEAMX (Zea mays) damage score, application post-emergence [1] | Pre-emergence herbicidal damage score, ABUTH [2] | Pre-emergence herbicidal damage score, ALOMY [2] | Pre-emergence herbicidal damage score, AMARE [2] | Pre-emergence herbicidal damage score, ECHCG [2] | Pre-emergence herbicidal damage score, SETFA [2] | Pre-emergence herbicidal damage score, ZEAMX [2] | melting point [°C]
1 | CCCC1=C(Cl)C(=O)N(c2cc(C(C)(C)C#N)on2)C1O (stereo not drawn) [A65] | 5 | 5 | 5 | 5 | 5 | 4 | 5 | 3 | 5 | 5 | 5 | 2 | 99 to 100
2 | C=CC(C)(C)c1onc(N2C(=O)C(Cl)=C(C)C2O)c1C#N (stereo not drawn) [A66] | 5 | 5 | 5 | 5 | 5 | 3 | 5 | 3 | 5 | 5 | 4 | 1 | 150 to 152
3 | CCCC1=C(Cl)C(=O)N(c2noc(C(C)(C)CC)c2C#N)C1O (stereo not drawn) [A68] | 5 | 5 | 5 | 5 | 5 | 1 | 4 | 3 | 3 | 5 | 5 | 1 | 82 to 84
4 | CCc1onc(N2C(=O)C(Cl)=C(C)C2O)c1C#N (stereo not drawn) [A71] | 5 | 4 | 5 | 5 | 5 | 2 | 4 | 3 | 5 | 4 | 5 | 2 | 95 to 97
5 | CC1=C(Cl)C(=O)N(c2cc(C(C)(C)CC#N)on2)C1O (stereo not drawn) [A72] | 5 | 5 | 5 | 5 | 5 | 5 | 5 | 4 | 5 | 5 | 5 | 4 | 103 to 105
6 | CCCC1=C(Br)C(=O)N(c2noc(C(C)(C)C)c2C#N)C1OC(=O)CC (stereo not drawn) [A73] | 5 | 4 | 5 | 5 | 5 | 2 | 5 | 3 | 5 | 4 | 5 | 3 | 78 to 80
